Assay results: patent US9187497B2, “Substituted pyrido[3,2-e]pyrrolo[1,2-a]pyrazines as inhibitors of poly(ADP-ribose)polymerase (PARP)” (Takeda Phamaceutical Company Limited, priority 2009, dated 2015)

Columns and labels:
[1] = biological target: T1, catalytic domain of Human PARP (Homo sapiens, UniProt P09874); test: Biacore surface plasmon resonance affinity assay (dissociation constant KD); type: binding; details: pKD=-log(KD), KD in molar concentration; Biacore T100, 25° C.
T1 construct: The catalytic domain of Human PARP was cloned and prepared; made in house
Method: Dissociation Constant (KD) from Surface Plasmon Resonance
The catalytic domain of Human PARP was cloned and prepared as described in Kinoshita, T.; Nakanishi, I.; Warizaya, M.; Iwashita, A.; Kido, Y.; Hattori, K. and Fujii, T. 2006 FEBS Letters 556, 43-46. Purified enzyme was stored at −80° C. in 25 mM Tris(hydroxymethyl)aminomethane (Tris) pH 7.4, 150 mM NaCl, 2 mM dithiothreitol (DTT) at a concentration of 6 mg/ml.
Biacore affinity assays for test compounds were conducted on a Biacore T100 (GE Healthcare) as follows. A Series S Sensor Chip CM5 (part number BR-1006-68, GE Healthcare) was activated for amide coupling with an Amine Coupling Kit (part number BR-1000-50, GE Healthcare) as described by the manufacturer. The mobile phase buffer consisted of Biacore buffer HBS-P (part number BR-1003-68, GE Healthcare) supplemented with 1% v/v dimethylsulfoxide (DMSO), 0.5 mM Tris(2-carboxyethyl)phosphine hydrochloride (TCEP), and 5 mM MgCl2. Enzyme samples (2 μl/6 mg/ml) stored at −80° C. were diluted to 0.080 mg/ml with 10 mM 4-morpholineethanesulfonic acid (MES) pH 6.5 and then mounted on the activated Biacore CM5 chip at a flow rate of 10 μl/min for 240 seconds. When successfully mounted, a signal of approximately 8,000 reflective units was observed. Test compounds were diluted 9 times 2-fold serially in mobile phase buffer (listed above) at 1% v/v DMSO final to generate a concentration gradient bracketing their anticipated KDs. Biacore mounted PARP was given a 1 minute exposure (association phase) to various concentrations of test compounds to observe a steady state equilibrium or an on rate. The exposure was followed with a dissociation phase of 5 minutes. The association and dissociation phases were at a flow rate of 50 μl/min and a temperature of 25° C.
Parameters Rmax (response at saturation) and KD (binding constant) were calculated through a nonlinear least squares fitting of the equation to the data by use of the Biacore T100 analysis software.
Parameter optimization was through a nonlinear least squares analysis of the association phase Response=Rmax*(1−exp(−(kon[cmpd]+koff)*t)) and dissociation phase Response=[…] by use of the Biacore T100 analysis software. The binding constant KD was calculated from the definition KD=koff/kon

[2] = test system: Jurkat cell line; test: PARP cellular chemopotentiation assay (MTS cell viability with and without TMZ); type: cell-based; details: ratio of EC50 for inhibition of cell viability without and with 100 μM TMZ; Jurkat cells, 96 hours of treatment
Outline: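 Jurkat cells, 10,000/well, pre-cultured 24 h, then treated 96 h with serial compound dilutions (0.5% DMSO) with or without 100 μM TMZ. Viability by MTS conversion (OD490), normalized to DMSO controls; EC50 from curve fits, PF50 = EC50 without TMZ / EC50 with TMZ.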

[3] = biological target: T2, PARP (Homo sapiens, UniProt P09874); test: PARP ELISA colorimetric assay of inhibition of PARP catalytic activity (IC50); type: biochemical; details: pIC50=-log(IC50), IC50 in molar concentration; ELISA-based PARP kit, 10 minutes of catalysis
T2 construct: purchased Trevigen 4684-096-01 (enzyme); kit 4684-096-K HT
Outline: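 Human PARP was added as a 0.1 nM solution to histone-coated wells with compound for a 10-min ambient preincubation. The reaction was started with 100 μM NAD+ solution plus activated DNA and run 10 min. PAR formation was detected by anti-PAR ELISA, colorimetric. IC50 came from a 12-point, 3-fold gradient fitted by nonlinear least squares to a Hill equation.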

T2 sequence (P09874 whole entry): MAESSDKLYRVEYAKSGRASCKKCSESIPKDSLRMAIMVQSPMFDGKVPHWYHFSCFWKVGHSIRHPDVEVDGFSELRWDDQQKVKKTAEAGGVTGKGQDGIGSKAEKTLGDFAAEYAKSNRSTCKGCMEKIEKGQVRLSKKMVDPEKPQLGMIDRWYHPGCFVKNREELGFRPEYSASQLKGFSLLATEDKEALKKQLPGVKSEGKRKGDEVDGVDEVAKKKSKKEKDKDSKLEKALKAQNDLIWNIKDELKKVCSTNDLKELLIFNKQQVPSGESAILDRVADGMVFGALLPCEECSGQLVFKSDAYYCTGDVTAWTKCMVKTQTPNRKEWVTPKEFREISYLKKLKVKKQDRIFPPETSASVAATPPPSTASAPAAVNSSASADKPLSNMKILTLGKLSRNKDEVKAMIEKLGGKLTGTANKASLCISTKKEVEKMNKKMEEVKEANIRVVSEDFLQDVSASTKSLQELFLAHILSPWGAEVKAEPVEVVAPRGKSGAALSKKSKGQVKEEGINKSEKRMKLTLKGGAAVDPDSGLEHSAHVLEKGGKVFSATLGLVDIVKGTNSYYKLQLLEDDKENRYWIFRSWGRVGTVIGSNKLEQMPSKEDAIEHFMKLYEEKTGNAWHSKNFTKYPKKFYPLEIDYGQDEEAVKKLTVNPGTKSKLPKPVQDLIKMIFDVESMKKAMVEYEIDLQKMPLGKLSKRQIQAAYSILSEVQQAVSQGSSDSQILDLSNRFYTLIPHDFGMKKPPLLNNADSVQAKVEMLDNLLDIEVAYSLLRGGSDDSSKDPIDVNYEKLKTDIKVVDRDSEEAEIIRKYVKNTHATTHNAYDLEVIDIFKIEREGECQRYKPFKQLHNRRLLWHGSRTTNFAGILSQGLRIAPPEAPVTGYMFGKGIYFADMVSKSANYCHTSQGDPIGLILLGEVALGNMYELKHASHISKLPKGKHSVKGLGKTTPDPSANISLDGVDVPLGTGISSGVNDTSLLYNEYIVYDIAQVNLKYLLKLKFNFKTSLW
T1 sequence (P09874 788-1014 limits assumed): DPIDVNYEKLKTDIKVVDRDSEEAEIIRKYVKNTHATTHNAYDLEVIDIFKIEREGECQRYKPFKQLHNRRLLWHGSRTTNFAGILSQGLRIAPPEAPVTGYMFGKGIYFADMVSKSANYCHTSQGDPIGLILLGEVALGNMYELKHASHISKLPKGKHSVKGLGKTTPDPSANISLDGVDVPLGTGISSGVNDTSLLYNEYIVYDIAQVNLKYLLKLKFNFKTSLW

O=C1Nc2cc(CN3CC=C(c4ccc(Cl)cc4)CC3)cnc2N2CCC[C@@H]12 [Compound 2, (S)-3-((4-(4-chlorophenyl)-5,6-dihydropyridin-1(2H)-yl)methyl)-6a,7,8,9-tetrahydropyrido[3,2-e]pyrrolo[1,2-a]pyrazin-6(5H)-one]
Kd [1]: < 31.6 nM
PF50 [2]: >2000
melting point: 234 to 235 °C

N#Cc1ccc(N2CCN(Cc3cnc4c(c3)NC(=O)[C@@H]3CCCN43)CC2)cc1 [Compound 4, (S)-4-(4-((6-oxo-5,6,6a,7,8,9-hexahydropyrido[3,2-e]pyrrolo[1,2-a]pyrazin-3-yl)methyl)piperazin-1-yl)benzonitrile]
IC50 [3]: 15.8 to 39.8 nM
PF50 [2]: >2000
melting point: 252 °C

N#Cc1ccc(N2CCN(Cc3cnc4c(c3)NC(=O)[C@@H]3CCCN43)CC2)nc1 [Compound 5, (S)-6-(4-((6-oxo-5,6,6a,7,8,9-hexahydropyrido[3,2-e]pyrrolo[1,2-a]pyrazin-3-yl)methyl)piperazin-1-yl)nicotinonitrile]
Kd [1]: < 31.6 nM
IC50 [3]: 15.8 to 39.8 nM
PF50 [2]: >5000
melting point: 252 to 256 °C

O=C(NC1CC1)c1ccc(N2CCN(Cc3cnc4c(c3)NC(=O)[C@@H]3CCCN43)CC2)cc1 [Compound 13, (S)—N-cyclopropyl-4-(4-((6-oxo-5,6,6a,7,8,9-hexahydropyrido[3,2-e]pyrrolo[1,2-a]pyrazin-3-yl)methyl)piperazin-1-yl)benzamide]
IC50 [3]: 15.8 to 39.8 nM
PF50 [2]: >5000
melting point: 265 to 268 °C

N#Cc1ccc(N2CCN(Cc3cnc4c(c3)NC(=O)[C@@H]3CCCN43)CC2)c(Cl)c1 [Compound 16, (S)-3-chloro-4-(4-((6-oxo-5,6,6a,7,8,9-hexahydropyrido[3,2-e]pyrrolo[1,2-a]pyrazin-3-yl)methyl)piperazin-1-yl)benzonitrile]
PF50 [2]: >500
melting point: 213 to 215 °C

N#Cc1cc(F)c(N2CCN(Cc3cnc4c(c3)NC(=O)[C@@H]3CCCN43)CC2)cc1F [Compound 17, (S)-2,5-difluoro-4-(4-((6-oxo-5,6,6a,7,8,9-hexahydropyrido[3,2-e]pyrrolo[1,2-a]pyrazin-3-yl)methyl)piperazin-1-yl)benzonitrile]
PF50 [2]: >2000
melting point: 224 to 227 °C

N#Cc1ccc(N2CCN(Cc3cnc4c(c3)NC(=O)[C@@H]3CCCN43)CC2)cc1F [Compound 21, (S)-2-fluoro-4-(4-((6-oxo-5,6,6a,7,8,9-hexahydropyrido[3,2-e]pyrrolo[1,2-a]pyrazin-3-yl)methyl)piperazin-1-yl)benzonitrile]
PF50 [2]: >2000
melting point: 251 to 255 °C

N#Cc1ccc(N2CCN(Cc3cnc4c(c3)NC(=O)[C@@H]3CCCCN43)CC2)cc1 [Compound 71, (S)-4-(4-((6-oxo-6,6a,7,8,9,10-hexahydro-5H-dipyrido[1,2-a:3′,2′-e]pyrazin-3-yl)methyl)piperazin-1-yl)benzonitrile]
IC50 [3]: ≤ 12.6 nM
PF50 [2]: >500
melting point: 212.2 °C

CCNC(=O)c1ccc(N2CCN(Cc3cnc4c(c3)NC(=O)[C@@H]3CCCCN43)CC2)cc1 [Compound 73, (S)—N-ethyl-4-(4-((6-oxo-6,6a,7,8,9,10-hexahydro-5H-dipyrido[1,2-a:3′,2′-e]pyrazin-3-yl)methyl)piperazin-1-yl)benzamide]
IC50 [3]: ≤ 12.6 nM
PF50 [2]: >2000
melting point: 232.6 °C

CCNC(=O)c1ccc(N2CCN(Cc3cnc4c(c3)NC(=O)[C@@H]3CSCCN43)CC2)cc1 [Compound 92, (R)—N-ethyl-4-(4-((6-oxo-5,6,6a,7,9,10-hexahydropyrido[3,2-e][1,4]thiazino[4,3-a]pyrazin-3-yl)methyl)piperazin-1-yl)benzamide]
PF50 [2]: >5000
melting point: 288.9 °C

CCOC(=O)c1ccc(N2CCN(Cc3cnc4c(c3)NC(=O)[C@@H]3CCCN43)CC2)cc1 [Compound 101, (S)-ethyl 4-(4-((6-oxo-5,6,6a,7,8,9-hexahydropyrido[3,2-e]pyrrolo[1,2-a]pyrazin-3-yl)methyl)piperazin-1-yl)benzoate]
IC50 [3]: ≥ 50.1 nM
PF50 [2]: >10
melting point: 242 °C

O=C1Nc2cc(CN3CCN(c4ccc(C(=O)N5CCCC5)cc4)CC3)cnc2N2CCC[C@@H]12 [Compound 138, (S)-3-((4-(4-(pyrrolidine-1-carbonyl)phenyl)piperazin-1-yl)methyl)-6a,7,8,9-tetrahydropyrido[3,2-e]pyrrolo[1,2-a]pyrazin-6(5H)-one]
IC50 [3]: ≥ 50.1 nM
PF50 [2]: ≧0
melting point: 121.3 °C

CN(C)C(=O)c1ccc(N2CCN(Cc3cnc4c(c3)NC(=O)[C@@H]3CCCN43)CC2)cc1 [Compound 139, (S)—N,N-dimethyl-4-(4-((6-oxo-5,6,6a,7,8,9-hexahydropyrido[3,2-e]pyrrolo[1,2-a]pyrazin-3-yl)methyl)piperazin-1-yl)benzamide]
IC50 [3]: ≥ 50.1 nM
PF50 [2]: ≧0
melting point: 99.2 °C

CCN(C)C(=O)c1ccc(N2CCN(Cc3cnc4c(c3)NC(=O)[C@@H]3CCCN43)CC2)cc1 [Compound 140, (S)—N-ethyl-N-methyl-4-(4-((6-oxo-5,6,6a,7,8,9-hexahydropyrido[3,2-e]pyrrolo[1,2-a]pyrazin-3-yl)methyl)piperazin-1-yl)benzamide]
IC50 [3]: ≥ 50.1 nM
PF50 [2]: ≧0
melting point: 91.9 °C

Cc1cc(C(=O)NC2CC2)ccc1N1CCN(Cc2cnc3c(c2)NC(=O)[C@@H]2CCCN32)CC1 [Compound 142, (S)—N-cyclopropyl-3-methyl-4-(4-((6-oxo-5,6,6a,7,8,9-hexahydropyrido[3,2-e]pyrrolo[1,2-a]pyrazin-3-yl)methyl)piperazin-1-yl)benzamide]
IC50 [3]: ≤ 12.6 nM
PF50 [2]: >2000
melting point: 226.7 to 233.5 °C
